According to patent US20240148821A1, “PHARMACEUTICAL USE OF CYCLIC PEPTIDE COMPOUND” (CHUGAI SEIYAKU KABUSHIKI KAISHA, priority 2021, published 2024):
Numbered stars: 1 amine (or outer) side, 2 acyl side, 3 side chain; on linkers, the order of the positions; unused ones are H or OH. Bridge positions count the residues as written; N and C are the ends. Square brackets hold non-standard residues; d marks the D form. Peptide text beside a SMILES is read from it. * marks the point of attachment. hPhe(3-Cl-4-CF3) = N[C@@H](CCc1ccc(C(F)(F)F)c(Cl)c1)C(=O)O; hPhe(3-F,4-CF3) = N[C@@H](CCc1ccc(C(F)(F)F)c(F)c1)C(=O)O; NEtPhe(4-CF3) = CCN[C@@H](Cc1ccc(C(F)(F)F)cc1)C(=O)O; NMePhe(4-CF3) = CN[C@@H](Cc1ccc(C(F)(F)F)cc1)C(=O)O; NMePhe(4-Cl) = CN[C@@H](Cc1ccc(Cl)cc1)C(=O)O; NMePhe(4-Me) = CN[C@@H](Cc1ccc(C)cc1)C(=O)O; NMedβ3hAla = C[C@H](CC(=O)[*:2])N(C)[*:1]; NMePhe(2-F) = CN[C@@H](Cc1ccccc1F)C(=O)O; hNle(7,7-F2) = N[C@@H](CCCCC(F)F)C(=O)O; NMeGly(cPent) = CN[C@H](C(=O)O)C1CCCC1; NMeCha = CN[C@@H](CC1CCCCC1)C(=O)O; Hyp = O=C(O)[C@@H]1C[C@@H](O)CN1; NEtLeu = CCN[C@@H](CC(C)C)C(=O)O; NMeI = CC[C@H](C)[C@H](NC)C(=O)O; NMeT = CN[C@H](C(=O)O)[C@@H](C)O; NMeD = CN[C@@H](CC(=O)O)C(=O)O; NMeL = CN[C@@H](CC(C)C)C(=O)O; NMeV = CN[C@H](C(=O)O)C(C)C; Morpholide = C1CN(*)CCO1; NMeA = CN[C@@H](C)C(=O)O; NMeAib = CNC(C)(C)C(=O)O; Piperidide = C1CCN(*)CC1; Pyrrolidide = C1CCN(*)C1; Ac5c = NC1(C(=O)O)CCCC1; Aze = O=C(O)[C@@H]1CCN1; Ac4c = NC1(C(=O)O)CCC1; Sar = CNCC(=O)O

Legend:
[1] = molecular target: protein-protein interaction between Kras and SOS1 (biotin-tagged human Kras loaded with GDP, His-tagged human SOS1) (Homo sapiens (Human), UniProt P01116, G12D); experiment: Protein-protein interaction inhibition between Kras and SOS1 (KrasG12D-SOS PPI) using AlphaScreen; assay type: biochemical; conditions: AlphaScreen; biotin-tagged human Kras loaded with GDP, His-tagged human SOS1; read-out: KRAS G12D-SOS PPI IC50;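 also: kras produced in E. coli, Ni-coupled donor beads and streptavidin acceptor beads, excitation 680 nm with emission detected at 520–620 nm via singlet oxygen transfer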
[2] = test system: Human pancreatic cancer cell line AsPC-1 (G12D mutation Kras); experiment: AsPC-1 cell growth inhibition (AsPC-1 CGI); assay type: cell-based; conditions: read-out: AsPC-1 cell growth inhibition, 50% growth inhibitory concentration (IC50 value); 96 hours, CellTiter-Glo, values classified in ranges
Procedure: Test compounds were serially dilated with dimethyl sulfoxide, and 200 nL was then dispensed to a U-bottom 96-well plate using Labcyte Echo. […] The cell suspension was dispensed to a. plate containing a test compound at 100 μL per well and incubated at 37° C. in a 5% carbon dioxide gas incubator. 96 hours later, 80 μL of CellTiter-Glo (Promega) was added to each well and fluorescence was measured.

Row | SMILES | IC50 [1] [nM] | IC50 [2] [nM]
1 | CC[C@H](C)[C@@H]1NC(=O)[C@H](CC(C)C)N(C)C(=O)C[C@@H](C(=O)N2CCCC2)N(C)C(=O)[C@H]([C@@H](C)CC)N(C)C(=O)C2(CCCC2)NC(=O)[C@@H]2CCCN2C(=O)[C@H](CCc2ccc(C(F)(F)F)c(Cl)c2)NC(=O)CN(C)C(=O)[C@H](Cc2ccc(C(F)(F)F)cc2)N(C)C(=O)[C@@H]2CCN2C(=O)[C@H](C)NC1=O [Compound 1360] ([NMeL]IA[Aze][NMePhe(4-CF3)][Sar][hPhe(3-Cl-4-CF3)]P[Ac5c][NMeI][NMeD]-Pyrrolidide; lactam N-11) | 0.97 | ≤ 20
2 | CC[C@H](C)[C@@H]1NC(=O)[C@H](CC(C)C)N(C)C(=O)C[C@@H](C)N(C)C(=O)[C@H](C(C)C)NC(=O)C(C)(C)N(C)C(=O)[C@H](CC(C)C)NC(=O)[C@H](CCc2ccc(C(F)(F)F)c(F)c2)NC(=O)CN(C)C(=O)[C@H](CC2CCCCC2)N(C)C(=O)CN(C)C(=O)CN(C)C1=O [Compound 967] (cyclo(I[Sar][Sar][NMeCha][Sar][hPhe(3-F,4-CF3)]L[NMeAib]V[NMedβ3hAla][NMeL])) | 58 | > 500
3 | CC[C@H](C)[C@@H]1NC(=O)[C@H](CC(C)C)N(CC)C(=O)C[C@@H](C(=O)N2CCOCC2)N(C)C(=O)[C@H](C2CCCC2)N(C)C(=O)C2(CCCC2)NC(=O)[C@@H]2CCCN2C(=O)[C@H](CCc2ccc(C(F)(F)F)c(Cl)c2)NC(=O)CN(C)C(=O)[C@H](CC2CCCCC2)N(C)C(=O)[C@@H]2CCN2C(=O)[C@H](C)N(C)C1=O [Compound 1220] ([NEtLeu]I[NMeA][Aze][NMeCha][Sar][hPhe(3-Cl-4-CF3)]P[Ac5c][NMeGly(cPent)][NMeD]-Morpholide; lactam N-11) | 0.64 | ≤ 20
4 | CC[C@H](C)[C@@H]1NC(=O)[C@H](C)N(C)C(=O)C[C@@H](C(=O)N2CCCCC2)N(C)C(=O)[C@H](C(C)C)N(C)C(=O)C2(CCCC2)NC(=O)[C@H](Cc2ccccc2F)N(C)C(=O)[C@H](CCc2ccc(C(F)(F)F)c(Cl)c2)NC(=O)CN(C)C(=O)[C@H](CC2CCCCC2)N(C)C(=O)CN(C)C(=O)CN(C)C1=O [Compound 492] ([NMeA]I[Sar][Sar][NMeCha][Sar][hPhe(3-Cl-4-CF3)][NMePhe(2-F)][Ac5c][NMeV][NMeD]-Piperidide; lactam N-11) | 12 | > 500
5 | CC[C@H](C)[C@@H]1NC(=O)[C@H](CC(C)C)N(C)C(=O)C[C@@H](C(=O)N(C)C)N(C)C(=O)[C@H](C2CCCC2)N(C)C(=O)[C@H](C(C)C)NC(=O)[C@@H]2CCCN2C(=O)[C@H](CCc2ccc(C(F)(F)F)c(Cl)c2)NC(=O)CN(C)C(=O)[C@H](CC2CCCCC2)N(C)C(=O)[C@@H]2CCN2C(=O)[C@H](C)N(C)C1=O [Compound 1010] ([NMeL]I[NMeA][Aze][NMeCha][Sar][hPhe(3-Cl-4-CF3)]PV[NMeGly(cPent)][NMeD]-NMe2; lactam N-11) | 4.3 | > 500
6 | CC(C)C[C@H]1C(=O)N[C@@H](CCCCC(F)F)C(=O)N(C)[C@@H](C)C(=O)N2CC[C@H]2C(=O)N(C)[C@@H](CC2CCCCC2)C(=O)N(C)CC(=O)N[C@@H](CCc2ccc(C(F)(F)F)c(Cl)c2)C(=O)N2CCC[C@H]2C(=O)NC2(CCCC2)C(=O)N(C)[C@@H](C(C)C)C(=O)N(C)[C@H](C(=O)N2CCCCC2)CC(=O)N1C [Compound 145] ([NMeL][hNle(7,7-F2)][NMeA][Aze][NMeCha][Sar][hPhe(3-Cl-4-CF3)]P[Ac5c][NMeV][NMeD]-Piperidide; lactam N-11) | 25 | > 500
7 | CCO[C@@H]1C[C@H]2C(=O)NC3(CCC3)C(=O)N(C)[C@@H]([C@@H](C)CC)C(=O)N(C)[C@H](C)CC(=O)N(C)[C@@H](CC(C)C)C(=O)N[C@@H]([C@@H](C)CC)C(=O)N(C)[C@@H](C)C(=O)N3CC[C@H]3C(=O)N(CC)[C@@H](Cc3ccc(C(F)(F)F)cc3)C(=O)N(C)CC(=O)N[C@@H](CCc3ccc(C(F)(F)F)c(Cl)c3)C(=O)N2C1 [Compound 547] (cyclo([Ac4c][NMeI][NMedβ3hAla][NMeL]I[NMeA][Aze][NEtPhe(4-CF3)][Sar][hPhe(3-Cl-4-CF3)][Hyp](Et))) | 1 | ≤ 20
8 | CC[C@H](C)[C@@H]1NC(=O)[C@H](CC(C)C)N(C)C(=O)C[C@@H](C(=O)N(C)C)N(C)C(=O)[C@H]([C@@H](C)CC)N(C)C(=O)C2(CCCC2)NC(=O)[C@@H]2CCCN2C(=O)[C@H](CCc2ccc(C(F)(F)F)c(F)c2)NC(=O)CN(C)C(=O)[C@H](CC2CCCCC2)N(C)C(=O)[C@@H]2CCN2C(=O)[C@H](C)N(C)C1=O [Compound 999] ([NMeL]I[NMeA][Aze][NMeCha][Sar][hPhe(3-F,4-CF3)]P[Ac5c][NMeI][NMeD]-NMe2; lactam N-11) | 1.7 | ≤ 20
9 | CC[C@H](C)[C@@H]1NC(=O)[C@H](CC(C)C)N(C)C(=O)C[C@@H](C(=O)N2CCCCC2)N(C)C(=O)[C@H]([C@@H](C)O)N(C)C(=O)C2(CCCC2)NC(=O)[C@@H]2CCCN2C(=O)[C@H](CCc2ccc(C(F)(F)F)c(Cl)c2)NC(=O)CN(C)C(=O)[C@H](CC2CCCCC2)N(C)C(=O)[C@@H]2CCN2C(=O)[C@H](C)N(C)C1=O [Compound 228] ([NMeL]I[NMeA][Aze][NMeCha][Sar][hPhe(3-Cl-4-CF3)]P[Ac5c][NMeT][NMeD]-Piperidide; lactam N-11) | 24 | > 500
10 | CC[C@H](C)[C@@H]1NC(=O)[C@H](CC(C)C)N(C)C(=O)C[C@@H](C(=O)N(C)C)N(C)C(=O)[C@H]([C@@H](C)CC)N(C)C(=O)C2(CCCC2)NC(=O)[C@@H]2CCCN2C(=O)[C@H](CCc2ccc(C(F)(F)F)c(Cl)c2)NC(=O)CN(C)C(=O)[C@H](Cc2ccc(C)cc2)N(C)C(=O)[C@@H]2CCN2C(=O)[C@H](C)N(C)C1=O [Compound 1842] ([NMeL]I[NMeA][Aze][NMePhe(4-Me)][Sar][hPhe(3-Cl-4-CF3)]P[Ac5c][NMeI][NMeD]-NMe2; lactam N-11) | 0.66 | ≤ 20
11 | CC[C@H](C)[C@@H]1NC(=O)[C@H](CC(C)C)N(C)C(=O)C[C@@H](C(=O)N2CCCCC2)N(C)C(=O)[C@H](C2CCCC2)N(C)C(=O)C2(CCCC2)NC(=O)[C@@H]2CCCN2C(=O)[C@H](CCc2ccc(C(F)(F)F)c(Cl)c2)NC(=O)CN(C)C(=O)[C@H](Cc2ccc(Cl)cc2)N(C)C(=O)[C@@H]2CCN2C(=O)[C@H](C)N(C)C1=O [Compound 120] ([NMeL]I[NMeA][Aze][NMePhe(4-Cl)][Sar][hPhe(3-Cl-4-CF3)]P[Ac5c][NMeGly(cPent)][NMeD]-Piperidide; lactam N-11) | 0.55 | ≤ 20
12 | CC[C@H](C)[C@@H]1NC(=O)[C@H](CC(C)C)N(C)C(=O)C[C@@H](C(=O)N2CCCCC2)N(C)C(=O)[C@H](C(C)C)N(C)C(=O)C2(CCCC2)NC(=O)[C@@H]2CCCN2C(=O)[C@H](CCc2ccc(C(F)(F)F)c(Cl)c2)NC(=O)CN(C)C(=O)[C@H](CC2CCCCC2)N(C)C(=O)[C@@H]2CCN2C(=O)[C@H](CC2CCCCC2)N(C)C1=O [Compound 1574] ([NMeL]I[NMeCha][Aze][NMeCha][Sar][hPhe(3-Cl-4-CF3)]P[Ac5c][NMeV][NMeD]-Piperidide; lactam N-11) | 35 | > 500
